Key:
[1] = test system: normal cells (HaCat, BJ and NIH 3T3); assay: Flow cytometry of FITC-labeled peptide uptake, normal cells; assay type: cell-based, human, mouse; settings: FITC-labeled peptide 10 µM, 30 min, 37°C, trypsin 1 mg/ml 10 min before FACS, 10,000 events
Description: (§1) To evaluate the internalization of FITC-labeled peptides, HeLa cells were seeded onto 12-well plates at a density of 2×10^5 cells per well and incubated for 24 h. FITC-labeled peptides, at various concentrations ranging from […], were then incubated with the cells for 30 min at 37°C. To compare the cellular uptake of peptides, cancer and normal cells were treated with FITC-labeled peptides (each, 10 µM) and incubated for 30 min at 37°C. Following the incubation, cells were washed three times with ice-cold PBS to remove excess extracellular complexes. Next, the cells were treated with trypsin (1 mg/ml) for 10 min to remove any remaining peptides bound to the cell surface. After trypsinization, the cells were collected by centrifugation (1,000×g for 5 min), resuspended with 500 µl ice-cold 2% FBS/PBS containing propidium iodide (PI), and then immediately analyzed (10,000 events/sample) by fluorescence activated cell sorting (FACS).
For all of these experimental conditions, flow cytometry analyses were performed with live cells using a Becton Dickinson FACSCalibur flow cytometer (BD Biosciences, San Diego, CA). In each case, the fluorescence of 10,000 viable cells was acquired. Viable cells were gated based on a sideward and forward scatter. […] The statistical significance was evaluated by Student’s t-test at a 95% confidence interval. […]

[2] = test system: cancer cells (HeLa, HCT116 and B16/F10); assay: Confocal laser scanning microscopy of FITC-labeled peptide uptake, cancer cells; assay type: cell-based, human, mouse; settings: FITC-labeled peptide 5 µM, 30 min, 37°C, live unfixed cells
Description: (§2) To investigate the cell-penetrating ability and the intracellular distribution of the internalized peptides, live confocal microscopy was performed on three cancer lines (HeLa, HCT116 and B16/F10) and three normal cell lines (HaCat, BJ and NIH 3T3). Briefly, cells (2×10^5) were plated on a glass coverslip placed in a 6-well plate, grown overnight, and then incubated with FITC-labeled peptides (5 µM for each cell line) for 30 min. The cells were then rinsed three times with phosphate buffered saline (PBS, pH 7.4), and mounted on microscope slides with fluorescence mounting solution (Dako Corp, Carpinteria, CA). Colocalization of BR2 with lysosomes was observed by using LysoTracker Red DND-99 (Molecular Probe, Eugene, OR). To avoid the effects of fixation artifacts, involving both methanol and paraformaldehyde, cells were not fixed, [27]. The distribution of FITC-labeled peptides was analyzed using a confocal scanning laser Zeiss LSM 510 microscope (Jena, Germany) equipped with a 40× and 20× objective. Fluorophores were excited with an argon laser (488 nm) for FITC and a HeNe laser (543 nm) for LysoTracker Red.
(§3) (B,C) In vitro cytotoxicity of peptides.

[3] = test system: normal cells (HaCat, BJ and NIH 3T3); assay: Confocal laser scanning microscopy of FITC-labeled peptide uptake, normal cells; assay type: cell-based, human, mouse; settings: FITC-labeled peptide 5 µM, 30 min, 37°C, live unfixed cells
Description: as §2, §3

[4] = test system: HeLa cells; assay type: cell-based, human; settings: FACS
Description: as §1
To understand further the cell-penetrating mechanism of peptides, the effects of temperature and metabolic inhibitors were examined. To elucidate the temperature dependency, HeLa cells were incubated at 4°C for 30 min prior to the addition of the peptides. Next, cells were treated with FITC-labeled peptides (each, 5 µM) at 4°C for 30 min. For the energy-depletion study, HeLa cells were preincubated with sodium azide (NaN3, 10 mM) at 37°C for 1 h and then incubated with FITC-labeled peptides (each, 5 µM) at 37°C for 30 min.
To study the role of endocytosis in peptide uptake, cells were pretreated with several endocytosis inhibitors at 37°C for 1 h: (i) amiloride (5 mM), which is known to block macropinocytosis by inhibiting a sodium channel; (ii) nocodazole (100 ng/ml), which inhibits the clathrin-mediated pathway; and (iii) methyl-ß-cyclodextrin (MßCD, 5 mM), which inhibits lipid raft-mediated processes by depleting cholesterol from the plasma membrane. All inhibitors were purchased from Sigma (St. Louis, MO).
To examine the effects of negatively charged components on the cell surface for peptide internalization, HeLa cells were pretreated with gangliosides (monosialoganglioside GM3 from canine blood), heparin sulfate, or sialic acid (Neu5Ac, all from Sigma) (20 µg/ml) for 30 min. For the inhibition of ganglioside biosynthesis, cells were pretreated with D-threo-1-phenyl-2-hexadecanoyl amino-3-morpholino-1-propanol (PPMP, 5 µM) for 48 h.
For all of these experimental conditions, flow cytometry analyses were performed with live cells using a Becton Dickinson FACSCalibur flow cytometer (BD Biosciences, San Diego, CA). In each case, the fluorescence of 10,000 viable cells was acquired. Viable cells were gated based on a sideward and forward scatter. For data analysis, WinMDI software (Joe Trotter, Scripps Research Institute, La Jolla, CA) was used. The statistical significance was evaluated by Student’s t-test at a 95% confidence interval.
Figure 2 BR2 specifically penetrates cancer cell membranes in a concentration-dependent manner. (A) Analysis of the cell-penetrating efficiency of each peptide in different cell types by flow cytometry. FITC-labeled Tat, BR1 and BR2 peptides (10 µM) were added to different cell types: HeLa, HCT116 and B16/F10 cancer cells and HaCat, BJ and NIH 3T3 normal cells. After 30 min of incubation at 37°C, the FITC-positive cells were counted by flow cytometry. Values represent the percentage of fluorescence-positive cells in the total cell population. (B) Quantitative assessment of cell penetration of each peptide by flow cytometry. HeLa cells were incubated with FITC-labeled peptides at concentrations of 1, 2, 5, or 10 µM for 30 min at 37°C. Afterwards the cells were washed with cold PBS and harvested and cellular fluorescence was analyzed by flow cytometry. […] Prior to analysis, extracellular fluorescence of surface bound peptides was removed by a trypsin treatment (1 mg/ml for 10 min). […]

[5] = test system: normal cell lines (HaCat, BJ and NIH 3T3); assay: In vitro cytotoxicity assay (LDH leakage), normal cell lines; settings: 24 h, 37°C
Description: The cytotoxicity of peptides to mammalian cells was investigated by assessing the release of lactate dehydrogenase (LDH) from cancer and normal cells. The amount of LDH released from damaged cells into the supernatant was measured using the Cytotoxicity Detection Kit (Roche Applied Science, Germany) according to the manufacturer’s instructions. In brief, cells were plated onto 96-well microplates (1×10^4 cells per well) in complete DMEM supplemented with 10% FBS and incubated overnight at 37°C to allow for attachment and spreading of cells. After 24 h of incubation, cells were treated with various concentrations of peptides (0–100 µM) and incubated for another 24 h at 37°C. The extracellular medium from each well was transferred to a new microplate and incubated for 10 min with 100 µl/well reaction mixture, followed by a stop solution. Absorbance was measured at 490 nm by using an ELISA plate reader. LDH release from cells lysed with 0.2% Triton X-100 in PBS was defined as 100% leakage and LDH release from untreated cells as 0% leakage.
(B,C) In vitro cytotoxicity of peptides. (B) Membrane disturbance was measured by lactate dehydrogenase (LDH) leakage from the indicated cell lines 24 h after peptide treatment. LDH leakage from cells seeded in a 96-well plate at 10,000 cells/well was measured after exposure to 1, 2, 5, 10, 20, 50 or 100 µM peptides for 24 h. […]

Sequence: RAGLQFPVGRLLRRLLR [BR2]
- percentage of fluorescence-positive cells (cells that internalized peptide) [1]: 23–34%
- cellular uptake (confocal microscopy) [2]: readily internalized
- cellular uptake (confocal microscopy) [3]: very poorly internalized
- decrease of cellular uptake at 4°C compared to 37°C ([4]; FITC-labeled peptide 5 µM, 30 min at 4°C after preincubation at 4°C): 88.5%
- inhibition of penetration by methyl-ß-cyclodextrin (MßCD) ([4]; MßCD 5 mM pretreatment 1 h 37°C, peptide 30 min 37°C, mean of three experiments): 44.6%
- reduction of uptake by ATP depletion (sodium azide) ([4]; NaN3 10 mM preincubation 1 h 37°C, then FITC-labeled peptide 5 µM 30 min 37°C): 67.7%
- effect of ganglioside synthesis inhibitor PPMP on peptide uptake ([4]; PPMP 5 µM pretreatment 48 h): significantly reduced
- inhibition of cellular uptake by amiloride ([4]; amiloride 5 mM pretreatment 1 h 37°C, peptide 30 min 37°C, mean of three experiments): 36.5%
- effect of exogenous gangliosides on peptide penetration ([4]; gangliosides (GM3) 20 µg/ml, 30 min): partially inhibited
- effect of exogenous heparin on peptide uptake ([4]; heparin 20 µg/ml, 30 min): almost no effect
- effect of nocodazole on peptide transduction ([4]; nocodazole 100 ng/ml pretreatment 1 h 37°C, peptide 30 min 37°C): negligible effect
- effect of exogenous sialic acids on peptide penetration ([4]; sialic acid (Neu5Ac) 20 µg/ml, 30 min): partially inhibited
- LDH leakage ([5]; 100 µM peptide, 0.2% Triton X-100 = 100%, n = 3): ~17%
- LDH leakage ([5]; peptide concentrations below 70 µM): not detected

Source: paper PMC3679022, “A Cancer Specific Cell-Penetrating Peptide, BR2, for the Efficient Delivery of an scFv into Cancer Cells” (PLoS ONE, 2013)
